Results from article PMC2645942 (Journal of medicinal chemistry, 2008).

How the values were obtained:
[1] = molecular target: αβγF77C (α1β2γ2F77C GABAA receptor) (Rattus norvegicus, UniProt P18508+P62813, F115C/INS375LLRMFSFK); assay: Radioligand binding, αβγF77C mutant
[2] = molecular target: αD97Cβγ (α1D97Cβ2γ2 GABAA receptor) (Rattus norvegicus, UniProt P18508+P62813, D124C/INS375LLRMFSFK); assay: Radioligand binding, αD97Cβγ mutant
[3] = molecular target: αY209Cβγ (α1Y209Cβ2γ2 GABAA receptor) (Rattus norvegicus, UniProt P18508+P62813, INS375LLRMFSFK/Y236C); assay: Radioligand binding, αY209Cβγ mutant

Measured: specific binding of radioligand

CCOC(=O)c1ncn2c1CN(C)C(=O)c1cc(F)ccc1-2 [Ro15-1788, ethyl 8-fluoro-5,6-dihydro-5-methyl-6-oxo-4H-imidazo[1,5-a][1,4]benzodiazepine-3-carboxylate]
not measurable: all assays above

CN1C(=O)CN=C(c2ccccc2F)c2cc([N+](=O)[O-])ccc21 [flunitrazepam]
not measurable: all assays above
